Measured values taken from patent US4950686A, “Anti-mycoplasma agent” (Shionogi & Co., Ltd., priority 1986, dated 1990).
Converted amounts (≈) assume the structure as drawn. Structures can show the parent of a compound that is named as a salt. Where two headings read alike, the source gives them in different places.

Experiments:
[1] = test system: Mycoplasma gallisepticum MR-1 (wild strain, tylosin-resistant); test: Anti-mycoplasma activity in vitro (MIC, broth dilution), strain MR-1; format: cell-based; conditions: Mg MR-1, 37° C., 7 days
Summary of the method: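 Broth dilution in chick PPLO broth with 20% equine serum; 2-fold compound dilutions, inoculum diluted to 10^6 CCU/ml. Incubated 7 days at 37 °C; MIC recorded.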

[2] = test system: Mycoplasma gallisepticum T-7-T (wild strain, tylosin-resistant); test: Anti-mycoplasma activity in vitro (MIC, broth dilution), strain T-7-T; format: cell-based; conditions: Mg T-7-T, 37° C., 7 days
Summary of the method: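 Broth dilution MIC in chick PPLO broth with 20% equine serum, using 2-fold agent dilutions. Inoculum of 24-48 h culture diluted to 10^6 CCU/ml before use. Incubated 7 days at 37° C.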

[3] = test system: Mycoplasma gallisepticum S6 (standard strain); test: Mycoplasma gallisepticum air-sac infection method in chicken, strain S6; format: in vivo, Mycoplasma gallisepticum; SPF chicken (white leghorn)
Procedure: (§1) (2) Test of Effectiveness Mycoplasma gallisepticum air-sac infection method
(§2) Inoculation: To the right air-sac of 9 days old SPF chicken (a white leghorn) which has abstained from water and feed one day before is inoculated 0.20-0.25 ml/chicken of fresh mycoplasma culture incubated for 24-48 hr and diluted with broth (usually 100 times). The concentration in Table 2 is shown in a unit of mg/ml.
(§3) Medium: Chick PPLO broth supplemented with 15% equine serum (Eiken Kagaku Co., Ltd.)
(§4) Administration: A compound of this invention dissolved or suspended in the following solution is orally and forcibly administered once by a cannula immediately after the infection.
(§5) Anatomization and Isolation of Microorganism: The chickens are anatomized 5 days after the infection, and the right and left air sacs are investigated whether they are attacked with a disease or not. The change caused by the disease is represented in four degrees; -: no change, +: slight, ++: medium and +++: serious. Microorganism is isolated from the right and left air-sacs and the trachea by using a sterilized applicator.
(§6) Judgement: Judgement is done through an index of an air-sac disease and an index of a microorganism-isolation.
(§7) Index of an air-sac-disease: First, indexes in the right and left air-sacs are separately calculated according to the following formula;
(§8) {degree of disease (0-3)×chickens}/anatomized chickens
(§9) and the index is calculated by the following formula;
(§10) (index of right air-sac)×1+(index of left air-sac)×2
(§11) Index of a microorganism isolation:
(§12) P: chickens from the right air-sac of which microorganism is isolated,
(§13) Q: chickens from the trachea of which microorganism is isolated,
(§14) R: chickens from the left air-sac of which microorganism is isolated, and
(§15) S: chickens investigated.

[4] = test system: Mycoplasma gallisepticum S6 (standard strain); test: Anti-mycoplasma activity in vitro (MIC, broth dilution), strain S6; format: cell-based; conditions: Mg S6, 37° C., 7 days
Summary of the method: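 Chick PPLO broth with 20% equine serum; 2-fold serial agent dilutions inoculated with culture diluted to 10^6 CCU/ml (inoculum concentration before addition). Incubated 7 days at 37 °C; MIC by broth dilution.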

[5] = Acute toxicity test in chickens; format: in vivo, SPF chickens of layer type; conditions: 400 mg/kg or 200 mg/kg once oral, 2 weeks; for increase of weight: vs control group
Procedure: Acute toxicity tests on tropolone L-lysine salt and O-acetyltropolone were performed according to the following method.
The tests had been done on 15 days old SPF chickens of layer type (5 males and 5 females) for 2 weeks. The above two compounds suspended in 5% gum arabic are orally and forcibly administered once at a dose of 400 mg/kg or 200 mg/kg. To a control group is administered 5% gum arabic.

[6] = test system: Mycoplasma gallisepticum T-7-T (wild strain, tylosin-resistant); test: Mycoplasma gallisepticum air-sac infection method in chicken, strain T-7-T;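 on Index of Isolation: index = (P×1 + Q×2 + R×3)/S with range 0 to 6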; format: in vivo, Mycoplasma gallisepticum; SPF chicken (white leghorn); conditions: 100 mg/kg × once oral, 10 mg/ml sol. b; for Change of air-sac, left: + (chickens) / Change of air-sac, left: ++ (chickens) / Change of air-sac, left: +++ (chickens) / Change of air-sac, left: - (chickens) / Change of air-sac, right: + (chickens) / Change of air-sac, right: ++ (chickens) / Change of air-sac, right: +++ (chickens) / Change of air-sac, right: - (chickens) / Isolation, L (left air-sac) / Isolation, R (right air-sac) / Isolation, T (trachea) / Mycoplasma Isolated Chickens: inoculum 10^2; for Index of Isolation: inoculum 10^2, range 0-6.0; for Index of Disease: inoculum 10^2, range 0-9.0
Procedure: as §1
T-7-T (wild strain, tylosin-resistant)
as §2, §3, §4, §5, §6, §7, §8, §9, §10, §11, §12, §13, §14, §15

[7] = test system: Mycoplasma hyopneumoniae ST-11 (standard strain); test: Anti-mycoplasma activity in vitro (MIC, broth dilution), strain ST-11; format: cell-based; conditions: Mh ST-11
Summary of the method: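 MIC by broth dilution in Hanks' solution with 0.5% lactoalbumin, yeast, equine serum and phenol red, pH 7.4-7.6. Inoculum: 3-4-day culture, turned yellow, diluted 10-fold in broth (subcultured first if yellowing took over 4 days).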

[8] = 100 mg/kg × once oral, 10 mg/ml sol. b, inoculum 1.2 × 10^6
[9] = 100 mg/kg × once oral, 10 mg/ml sol. b, inoculum 1.2 × 10^6, range 0-6.0
[10] = 100 mg/kg × once oral, 10 mg/ml sol. b, inoculum 1.2 × 10^6, range 0-9.0
[11] = 200 mg/kg × once oral, 20 mg/ml sol. b, inoculum 1.18 × 10^6
[12] = Mycoplasmoides gallisepticum, 168 h, read-out: MIC
[13] = 200 mg/kg × once oral, 20 mg/ml sol. c, inoculum 6.3 × 10^4

SMILES: O=c1cccccc1O [Compound 11, Tropolone L-lysine salt]
- MIC [1]: 0.78 µg/mL
- MIC [2]: 0.78 µg/mL
- Change of air-sac, left: + (chickens) [3, 8]: 0
- Change of air-sac, left: ++ (chickens) [3, 8]: 0
- Change of air-sac, left: +++ (chickens) [3, 8]: 0
- Change of air-sac, left: - (chickens) [3, 8]: 8
- Change of air-sac, right: + (chickens) [3, 8]: 0
- Change of air-sac, right: ++ (chickens) [3, 8]: 0
- Change of air-sac, right: +++ (chickens) [3, 8]: 0
- Change of air-sac, right: - (chickens) [3, 8]: 8
- Isolation, L (left air-sac) [3, 8]: 2
- Isolation, R (right air-sac) [3, 8]: 0
- Isolation, T (trachea) [3, 8]: 1
- Mycoplasma Isolated Chickens [3, 8]: 2
- Index of Isolation [3, 9]: 0.54
- Index of Disease [3, 10]: 0
- Change of air-sac, left: + (chickens) [3, 11]: 0
- Change of air-sac, left: ++ (chickens) [3, 11]: 0
- Change of air-sac, left: +++ (chickens) [3, 11]: 0
- Change of air-sac, left: - (chickens) [3, 11]: 5
- Change of air-sac, right: + (chickens) [3, 11]: 0
- Change of air-sac, right: ++ (chickens) [3, 11]: 0
- Change of air-sac, right: +++ (chickens) [3, 11]: 0
- Change of air-sac, right: - (chickens) [3, 11]: 5
- Isolation, L (left air-sac) [3, 11]: 0
- Isolation, R (right air-sac) [3, 11]: 4
- Isolation, T (trachea) [3, 11]: 0
- Mycoplasma Isolated Chickens [3, 11]: 4
- Index of Isolation ([3]; 200 mg/kg × once oral, 20 mg/ml sol. b, inoculum 1.18 × 10^6, range 0-6.0): 0.8
- Index of Disease ([3]; 200 mg/kg × once oral, 20 mg/ml sol. b, inoculum 1.18 × 10^6, range 0-9.0): 0
- MIC [4]: 0.39 µg/mL
- deaths [5]: none of chickens died
- increase of weight [5]: equal to the control group
- Change of air-sac, left: + (chickens) [6]: 0
- Change of air-sac, left: ++ (chickens) [6]: 0
- Change of air-sac, left: +++ (chickens) [6]: 0
- Change of air-sac, left: - (chickens) [6]: 8
- Change of air-sac, right: + (chickens) [6]: 0
- Change of air-sac, right: ++ (chickens) [6]: 0
- Change of air-sac, right: +++ (chickens) [6]: 0
- Change of air-sac, right: - (chickens) [6]: 8
- Isolation, L (left air-sac) [6]: 1
- Isolation, R (right air-sac) [6]: 4
- Isolation, T (trachea) [6]: 5
- Mycoplasma Isolated Chickens [6]: 5
- Index of Isolation [6]: 2.90
- Index of Disease [6]: 0
- MIC [7]: 0.78 µg/mL

SMILES: CC(=O)Oc1cccccc1=O [Compound 13, O-Acetyltropolone]
- MIC [1, 12]: 0.78 µg/mL (≈ 4.75 µM)
- MIC [2, 12]: 0.78 µg/mL (≈ 4.75 µM)
- Change of air-sac, left: + (chickens) [3, 8]: 0
- Change of air-sac, left: ++ (chickens) [3, 8]: 0
- Change of air-sac, left: +++ (chickens) [3, 8]: 0
- Change of air-sac, left: - (chickens) [3, 8]: 8
- Change of air-sac, right: + (chickens) [3, 8]: 1
- Change of air-sac, right: ++ (chickens) [3, 8]: 0
- Change of air-sac, right: +++ (chickens) [3, 8]: 0
- Change of air-sac, right: - (chickens) [3, 8]: 7
- Isolation, L (left air-sac) [3, 8]: 2
- Isolation, R (right air-sac) [3, 8]: 2
- Isolation, T (trachea) [3, 8]: 3
- Mycoplasma Isolated Chickens [3, 8]: 3
- Index of Isolation [3, 9]: 1.75
- Index of Disease [3, 10]: 0.1
- Change of air-sac, left: + (chickens) [3, 13]: 0
- Change of air-sac, left: ++ (chickens) [3, 13]: 0
- Change of air-sac, left: +++ (chickens) [3, 13]: 0
- Change of air-sac, left: - (chickens) [3, 13]: 5
- Change of air-sac, right: + (chickens) [3, 13]: 0
- Change of air-sac, right: ++ (chickens) [3, 13]: 0
- Change of air-sac, right: +++ (chickens) [3, 13]: 0
- Change of air-sac, right: - (chickens) [3, 13]: 5
- Isolation, L (left air-sac) [3, 13]: 0
- Isolation, R (right air-sac) [3, 13]: 0
- Mycoplasma Isolated Chickens [3, 13]: 0
- Index of Disease ([3]; 200 mg/kg × once oral, 20 mg/ml sol. c, inoculum 6.3 × 10^4, range 0-9.0): 0
- Index of Isolation ([3]; 200 mg/kg × once oral, 20 mg/ml sol. c, inoculum 6.3 × 10^4, trachea ND, range 0-6.0): 0
- MIC [4, 12]: 0.39 µg/mL (≈ 2.38 µM)
- deaths [5]: none of chickens died
- increase of weight [5]: a little inferior to the control-group
- Change of air-sac, left: + (chickens) [6]: 0
- Change of air-sac, left: ++ (chickens) [6]: 0
- Change of air-sac, left: +++ (chickens) [6]: 0
- Change of air-sac, left: - (chickens) [6]: 8
- Change of air-sac, right: + (chickens) [6]: 0
- Change of air-sac, right: ++ (chickens) [6]: 0
- Change of air-sac, right: +++ (chickens) [6]: 0
- Change of air-sac, right: - (chickens) [6]: 8
- Isolation, L (left air-sac) [6]: 1
- Isolation, R (right air-sac) [6]: 1
- Isolation, T (trachea) [6]: 2
- Mycoplasma Isolated Chickens [6]: 2
- Index of Isolation [6]: 0.90
- Index of Disease [6]: 0

SMILES: O=c1c(O)ccccc1Br [Compound 24, 7-Bromotropolone]
- MIC [1, 12]: 1.56 µg/mL (≈ 7.76 µM)
- MIC [2, 12]: 0.78 µg/mL (≈ 3.88 µM)
- Change of air-sac, left: + (chickens) [3, 8]: 0
- Change of air-sac, left: ++ (chickens) [3, 8]: 0
- Change of air-sac, left: +++ (chickens) [3, 8]: 0
- Change of air-sac, left: - (chickens) [3, 8]: 8
- Change of air-sac, right: + (chickens) [3, 8]: 0
- Change of air-sac, right: ++ (chickens) [3, 8]: 0
- Change of air-sac, right: +++ (chickens) [3, 8]: 0
- Change of air-sac, right: - (chickens) [3, 8]: 8
- Isolation, L (left air-sac) [3, 8]: 4
- Isolation, R (right air-sac) [3, 8]: 1
- Isolation, T (trachea) [3, 8]: 7
- Mycoplasma Isolated Chickens [3, 8]: 7
- Index of Isolation [3, 9]: 2.70
- Index of Disease [3, 10]: 0
- MIC [4, 12]: 0.39 µg/mL (≈ 1.94 µM)
- Change of air-sac, left: + (chickens) [6]: 0
- Change of air-sac, left: ++ (chickens) [6]: 0
- Change of air-sac, left: +++ (chickens) [6]: 0
- Change of air-sac, left: - (chickens) [6]: 8
- Change of air-sac, right: + (chickens) [6]: 0
- Change of air-sac, right: ++ (chickens) [6]: 0
- Change of air-sac, right: +++ (chickens) [6]: 0
- Change of air-sac, right: - (chickens) [6]: 8
- Isolation, L (left air-sac) [6]: 3
- Isolation, R (right air-sac) [6]: 3
- Isolation, T (trachea) [6]: 5
- Mycoplasma Isolated Chickens [6]: 5
- Index of Isolation [6]: 2.80
- Index of Disease [6]: 0
- MIC ([7]; Mesomycoplasma hyopneumoniae, read-out: MIC): 0.2 µg/mL (≈ 0.995 µM)
